Reference: US7335673B2, “2,3-Diphenylpropionic acid derivatives or their salts, medicines or cell adhesion inhibitors containing the same, and their usage” (Kaken Pharmaceutical Co., Ltd., priority 2001, dated 2008)

Assays:
[1] = VLA-4/VCAM-1 cell adhesion inhibition test; type: cell-based; details: Homo sapiens; adhesion of BCECF-labeled HL-60 cells to VCAM-1-expressing CHO cells; read-out: 50% Inhibition Concentration
Protocol: VCAM-1-expressing CHO cells were placed in a 96-well cuture plate in an amount of 7×10^3 cells/well, and were cultured in Ham's F-12 medium containing 10 vol % fetal calf serum (FCS) for 3 days until a confluent state was satisfied. HL-60 cells were re-flotated in Hanks' solution containing 0.4 wt % bovine serum albumin (BSA), and fluorescence-labeled by adding 5 μM of 2′,7′-bis(carboxyethyl)-5(6)-carboxy fluorescein pentaacetoxymethyl ester (BCECF-AM). […]
Thus-pretreated HL-60 cells were then stratified in an amount of 2×10^5 cells/well in each well containing the cultured VCAM-1-expressing CHO cells, and allowed to adhere at 37° C. for 5 minutes. […] The cells were washed, destroyed by adding PBS containing 1 vol % NP-40, and fluorescence intensity of the obtained supernatant was measured using a fluorescence measurement system (Millipore, Model cyto Fluor 2300).
Blank experiment was based on fluorescence intensity of PBS containing 1 vol % NP-40. Standard experiment was carried out using the fluorescence-labeled HL-60 suspensions having a concentration of 2×10^5, 10^5, 2×10^4 and 10^4 cells/mL, respectively, where the suspensions were added to PBS containing 1 vol % NP-40, the cells were destroyed, and the fluorescence intensities of the obtained supernatant were measured. […]

LPAM-1/VCAM-1 adhesion = LPAM-1/VCAM-1 adhesion inhibition test

| Compound | IC50 [1] [µM] | inhibition activity in LPAM-1/VCAM-1 adhesion inhibition test (LPAM-1/VCAM-1 adhesion) |
| --- | --- | --- |
| CC(C)CNc1cccc(C(Cc2ccc(NC(=O)c3c(Cl)cccc3Cl)cc2)C(=O)O)c1 (stereo not drawn) [Example 27] | 6 | – |
| COc1ccc(C(Cc2ccc(-c3c(OC)cccc3OC)cc2)C(=O)O)cc1N(CC(C)C)C(=O)C(C)(C)C (stereo not drawn) [Example 106] | 4.1 | showed the inhibition activity |
